Assay results reported in ChEMBL document CHEMBL1131729, “Isolation and synthesis of a novel immunosuppressive 17alpha-substituted dammarane from the flour of the Palmyrah palm (Borassus flabellifer)” (Bioorg Med Chem Lett, 1999).
≈ marks a conversion by molar mass, not a printed value.

Columns and labels:
Mus musculus [1] = assay: Compound was tested […] for immunosuppressive activity in the serum free mixed lymphocyte reaction; assay type: functional
Mus musculus [2] = assay: In vivo immunosuppressive activity in the delayed type hypersensitivity model induced by SRBC-TH cells in mouse after peroral administration; assay type: functional; conditions: po

Compound: C=C(C/C=C/C(C)(C)O)[C@@H]1CC[C@]2(C)[C@@H]1CC[C@@H]1[C@@]3(C)CC[C@H](O)C(C)(C)[C@@H]3CC[C@]12C
- IC50 (Mus musculus [1]): 0.01 µg/mL (≈ 0.0226 µM)
- ED50 (Mus musculus [2]): 0.04 mg/kg

Compound: C=C(C/C=C/C(C)(C)O)[C@H]1CC[C@]2(C)[C@@H]1CC[C@@H]1[C@@]3(C)CC[C@H](O)C(C)(C)[C@@H]3CC[C@]12C
- IC50 (Mus musculus [1]): 0.8 µg/mL (≈ 1.81 µM)
- ED50 (Mus musculus [2]): 10 mg/kg
